Measurements taken from patent US5707987A, “Carbapenem derivatives” (Banyu Pharmaceutical Co., Ltd., priority 1994, dated 1998).
≈ marks a conversion by molar mass, not a printed value. Where two headings read alike, the source gives them in different places.

Tests used:
DHP-I [1] = format: in vitro ADME; conditions: ratio to imipenem (=1.0); the smaller the value, the higher the stability
Source text: Further, the DHP-I susceptibility was quantitatively analyzed by the method by Kropp et al., Antimicrob. Agents Chemother., vol. 22, pp. 62-70 (1982), whereby the smaller the numerical value representing the ratio to imipenem (=1.0), the higher the stability.
The DHP-1 susceptibility of the compounds of the present invention were compared with imipenem.

kidney = conditions: background statement; cited from earlier work
S. aureus BB5939 = assay: In vitro antibacterial activity, agar plate dilution method (MIC); format: cell-based; conditions: Staphylococcus aureus, read-out: Minimum Inhibitory Concentration (MIC)
Method: (§1) One platinum loopful of each test microorganism incubated overnight in Mueller Hinton broth, was inoculated to Mueller Hinton agar (inoculum size: 10^6 CFU/ml). Such culture media contained antibacterial agents in various concentrations. […] The minimum inhibitory concentrations of the compounds of the present invention were compared with imipenem.

S. aureus pMS520/Smith = assay: as above; format: cell-based; conditions: Staphylococcus aureus, 16 h, read-out: Minimum Inhibitory Concentration (MIC)
Method: as §1

[2] = tested on: highly methicillin-resistant Staphylococcus aureus resistant to imipenem and imipenem-resistant Pseudomonas aeruginosa; conditions: background statement; cited from earlier work
DHP-I [3] = conditions: background statement; cited from earlier work
[4] = cited from earlier work
[5] = tested on: gram positive bacteria and gram negative bacteria; conditions: background statement; cited from earlier work
β-lactamase = conditions: background statement; cited from earlier work
[6] = background statement; cited from earlier work
[7] = tested on: renal dehydropeptidase I (DHP-I); conditions: in vivo; cited from earlier work
[8] = S. aureus BB5939 (β-lactamase-producing bacterium per footnote), inoculum 10^6 CFU/ml, Mueller Hinton agar, 37° C., 16 hours

SMILES	DHP-I susceptibility (DHP-I [1])	MIC (S. aureus BB5939; [8]) [µg/mL]	MIC (S. aureus pMS520/Smith) [µg/mL]	other results
C[C@@H](O)[C@H]1C(=O)N2C(C(=O)O)=C(S[C@@H]3CN[C@H](COc4ccccc4)C3)[C@H](C)[C@H]12 [Example 128, (1R,5S,6S)-6-[(R)-1-Hydroxyethyl]-1-methyl-2-[(3S,5S)-5-(phenoxymethyl)pyrrolidin-3-ylthio]-1-carbapen-2-em-3-carboxylic acid]	0.16			
CN[C@H](CC(C)C)C(=O)N[C@H]1C(=O)N[C@@H](CC(N)=O)C(=O)N[C@H]2C(=O)N[C@H]3C(=O)N[C@H](C(=O)N[C@H](C(=O)O)c4cc(O)cc(O)c4-c4cc3ccc4O)[C@H](O)c3ccc(c(Cl)c3)Oc3cc2cc(c3O[C@@H]2O[C@H](CO)[C@@H](O)[C@H](O)[C@H]2O[C@H]2C[C@](C)(N)[C@H](O)[C@H](C)O2)Oc2ccc(cc2Cl)[C@H]1O [vancomycin]				toxicity against the kidney (kidney): strong toxicity
C[C@@H](O)[C@H]1C(=O)N2C(C(=O)O)=C(S[C@@H]3CN[C@H](COc4ccc(CN)cc4)C3)[C@H](C)[C@H]12.Cl [Example 127, (1R,5S,6S)-2-[(3S,5S)-5-[4-(Aminomethyl)phenoxymethyl]-pyrrolidin-3-ylthio]-6-[(R)-1-hydroxyethyl]-1-methyl-1-carbapen-2-em-3-carboxylic acid monohydrochloride]	0.15	0.78	3.13	
C[C@@H](O)[C@H]1C(=O)N2C(C(=O)O)=C(S[C@@H]3CN[C@H](Cc4ccc(CN)cc4)C3)[C@H](C)[C@H]12 [Example 131]	< 0.05	0.78 (≈ 1.81 µM)	3.13 (≈ 7.25 µM)	
C[C@@H](O)[C@H]1C(=O)N2C(C(=O)O)=C(S[C@@H]3CN[C@H](CNc4ccc(CN)cc4)C3)[C@H](C)[C@H]12.Cl [Example 121, (1R,5S,6S)-2-[(3S,5S)-5-[4-(Aminomethyl)anilinomethyl]-pyrrolidin-3-ylthio]-6-[(R)-1-hydroxyethyl]-1-methyl-1-carbapen-2-em-3-carboxylic acid monohydrochloride]	0.15	0.39	1.56	
C[C@@H](O)[C@H]1C(=O)N2C(C(=O)O)=C(S[C@@H]3CN[C@H](C(O)c4ccc(-c5ccc(CN)cc5)cc4)C3)[C@H](C)[C@H]12 (single isomer, unassigned; diastereomer i) [Example 140]	< 0.05	0.78 (≈ 1.49 µM)	1.56 (≈ 2.98 µM)	
C[C@@H](O)[C@H]1C(=O)N2C(C(=O)[O-])=C(S[C@@H]3CN[C@H](CSc4ccccc4)C3)[C@H](C)[C@H]12.[Na+]	0.15		1.56	MIC (S. aureus BB5939; BB5939, 16 h): 0.39 µg/mL
C[C@@H](O)[C@H]1C(=O)N2C(C(=O)O)=C(SCCN=CN)C[C@H]12 [Imipenem, (5R,6S)-3-[2-(formimidoylamino)ethylthie]-6-[(R)-1-hydroxyethyl]-7-oxo-1-azabicyclo[3.2.0]hept-2-en-2-carboxylic acid monohydrate]	1.0		> 25	treating effects against resistant bacteria [2]: does not show adequate treating effects against these resistant bacteria; decomposition by DHP-I in the human kidney (DHP-I [3]): likely to be decomposed by DHP-I in the human kidney; toxicity against the kidney (kidney): presents toxicity against the kidney; stability in the solid form or in an aqueous solution ([4]; vs thienamycin): remarkably improved over thienamycin; antibacterial activities [5]: antibacterial activities of an equal or higher level than thienamycin; MIC (S. aureus BB5939; BB5939, 16 h): 6.25 µg/mL; β-lactamase resistance (β-lactamase): β-lactamase resistance
C[C@@H](O)[C@H]1C(=O)N2C(C(=O)O)=C(SCCN)C[C@H]12 [thienamycin]				decomposition by DHP-I in the human kidney (DHP-I [3]): likely to be decomposed by DHP-I in the human kidney; recovery rate in the urine [6]: low; decomposition by renal dehydropeptidase I [7]: likely to be decomposed; chemical stability ([4]; background statement): chemically unstable; antibacterial activities [5]: excellent antibacterial spectrum and strong antibacterial activities
C=CCN1C[C@@H](SC2=C(C(=O)O)N3C(=O)[C@H]([C@@H](C)O)[C@H]3[C@H]2C)C[C@H]1Cc1cccc2ccccc12 [Example 137, (1R,5S,6S)-2-[(3S,5R)-N-Allyl-5-(1-naphthylmethyl)pyrrolidin-3-ylthio]-6-[(R)-1-hydroxyethyl]-1-methyl-1-carbapen-2-em-3-carboxylic acid]	< 0.05			
